pIC50, pKi: −log10 of the molar value.
Key:
[1] = target: Glutamate receptor ionotropic, NMDA 2B (Homo sapiens, UniProt Q05586+Q13224); experiment: Displacement of [3H]ifenprodil from human recombinant GluN2B expressed in mouse L(tk-) cell membranes co-expressing GluN1a incubated for 120 mins by scintillation counting method
[2] = target: Sigma non-opioid intracellular receptor 1 (Cavia porcellus, UniProt Q60492); experiment: Displacement of [3H]-(+)-pentazocine from sigma1 receptor in guinea pig brain membranes incubated for 120 mins by scintillation counting method; assay type: cell membranes, Membrane
[3] = target: T1, Sigma intracellular receptor 2 (Rattus norvegicus, UniProt Q5U3Y7); experiment: Displacement of [3H]-di-o-tolylguanidine from sigma2 receptor in rat liver membranes incubated for 120 mins in the presence of sigma1 receptor ligand (+)-pentazocine by scintillation counting method; assay type: cell membranes, Membrane
T1 sequence (Q5U3Y7 whole entry): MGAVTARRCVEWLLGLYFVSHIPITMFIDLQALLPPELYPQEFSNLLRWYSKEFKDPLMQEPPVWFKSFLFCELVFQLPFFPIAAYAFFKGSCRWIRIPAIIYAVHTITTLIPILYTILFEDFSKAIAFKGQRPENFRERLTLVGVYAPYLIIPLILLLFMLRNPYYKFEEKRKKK

[4] = Selectivity index, ratio of Ki for sigma1 receptor in guinea pig brain membranes to Ki for human GluN2B expressed in mouse L(tk-) cell membranes co-expressing GluN1a; assay type: cell-based
[5] = Selectivity index, ratio of Ki for sigma2 receptor in rat liver membranes to Ki for human GluN2B expressed in mouse L(tk-) cell membranes co-expressing GluN1a; assay type: cell-based
[6] = Cytoprotection against glutamate/glycine-induced cytotoxicity against mouse LTK cells expressing GluN1a/GluN2B assessed as inhibition of cell death incubated for 12 hrs by LDH assay; assay type: functional, cell-based

Glutamate receptor ionotropic, NMDA 2B, sequence (Q13224 whole entry, one chain of several): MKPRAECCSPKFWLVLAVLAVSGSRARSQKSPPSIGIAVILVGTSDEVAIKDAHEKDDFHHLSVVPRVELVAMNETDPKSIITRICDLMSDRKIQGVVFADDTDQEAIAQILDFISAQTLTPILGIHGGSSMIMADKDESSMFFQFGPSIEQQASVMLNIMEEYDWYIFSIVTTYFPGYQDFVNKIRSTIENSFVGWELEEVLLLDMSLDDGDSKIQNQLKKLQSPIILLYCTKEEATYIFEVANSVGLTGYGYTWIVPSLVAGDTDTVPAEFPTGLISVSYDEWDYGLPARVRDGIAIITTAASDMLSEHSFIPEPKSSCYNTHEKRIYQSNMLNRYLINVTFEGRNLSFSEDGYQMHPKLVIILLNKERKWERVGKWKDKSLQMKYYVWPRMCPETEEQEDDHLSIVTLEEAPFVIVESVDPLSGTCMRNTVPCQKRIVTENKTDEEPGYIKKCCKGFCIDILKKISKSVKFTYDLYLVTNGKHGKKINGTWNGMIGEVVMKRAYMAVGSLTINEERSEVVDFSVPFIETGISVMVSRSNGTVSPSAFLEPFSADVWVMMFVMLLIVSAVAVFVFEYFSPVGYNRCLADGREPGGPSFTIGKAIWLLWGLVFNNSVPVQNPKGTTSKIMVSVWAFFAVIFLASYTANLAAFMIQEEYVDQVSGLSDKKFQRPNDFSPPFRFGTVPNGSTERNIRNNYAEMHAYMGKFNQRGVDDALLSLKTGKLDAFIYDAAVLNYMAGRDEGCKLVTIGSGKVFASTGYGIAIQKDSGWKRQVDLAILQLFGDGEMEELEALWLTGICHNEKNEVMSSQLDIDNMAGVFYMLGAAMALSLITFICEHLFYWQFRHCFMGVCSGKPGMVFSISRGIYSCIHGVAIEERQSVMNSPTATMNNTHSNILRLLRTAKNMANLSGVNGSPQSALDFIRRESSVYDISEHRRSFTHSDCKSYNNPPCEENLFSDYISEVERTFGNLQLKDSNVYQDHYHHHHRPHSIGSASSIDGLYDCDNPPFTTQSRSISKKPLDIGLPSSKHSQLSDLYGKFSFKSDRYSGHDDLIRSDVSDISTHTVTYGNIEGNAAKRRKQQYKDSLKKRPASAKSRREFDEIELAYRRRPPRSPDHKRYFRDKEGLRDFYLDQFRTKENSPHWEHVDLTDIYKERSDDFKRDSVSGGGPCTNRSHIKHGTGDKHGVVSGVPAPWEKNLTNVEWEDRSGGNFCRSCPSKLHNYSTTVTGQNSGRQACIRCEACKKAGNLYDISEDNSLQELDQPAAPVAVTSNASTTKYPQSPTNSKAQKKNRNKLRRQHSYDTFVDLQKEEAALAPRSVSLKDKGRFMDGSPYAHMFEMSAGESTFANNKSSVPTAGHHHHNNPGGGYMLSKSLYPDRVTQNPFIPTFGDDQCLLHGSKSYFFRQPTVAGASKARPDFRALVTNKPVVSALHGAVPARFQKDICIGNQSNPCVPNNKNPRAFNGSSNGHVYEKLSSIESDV
Sigma non-opioid intracellular receptor 1, sequence (Q60492 whole entry): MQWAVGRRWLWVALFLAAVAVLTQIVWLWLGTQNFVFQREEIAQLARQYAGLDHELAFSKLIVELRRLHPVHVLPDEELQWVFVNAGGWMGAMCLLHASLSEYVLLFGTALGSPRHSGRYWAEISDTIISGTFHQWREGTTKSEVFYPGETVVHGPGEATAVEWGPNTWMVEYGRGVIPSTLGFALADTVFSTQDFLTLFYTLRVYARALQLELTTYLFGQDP

Row | Compound | pKi [1] | pKi [2] | pKi [3] | Ratio Ki [4] | Ratio Ki [5] | pIC50 [6]
1 | CCN(CCCc1ccccc1)C1CCc2ccsc2CC1 (configuration not stated) | 7.29 | 7.77 | 7.48 |  |  | 
2 | CCN(CCc1ccccc1)C1CCc2ccsc2CC1 (configuration not stated) | 6.71 | 7.23 | 6.85 |  |  | 
3 | c1ccc(CCNC2CCc3ccsc3CC2)cc1 (configuration not stated) | 7.48 | 6.88 | 7.25 |  |  | 
4 | CN(CCCc1ccccc1)C1CCc2cc(CO)sc2CC1 (configuration not stated) | 6.85 | 8.19 | 7.68 |  |  | 
5 | CN(CCc1ccccc1)C1CCc2cc(CO)sc2CC1 (configuration not stated) | 6.14 | 7.25 | 7.32 |  |  | 
6 | OCc1cc2c(s1)CCC(NCCCc1ccccc1)CC2 (configuration not stated) | 6.74 | 7.21 | 7.52 |  |  | 
7 | CN(CCc1ccccc1)C1CCc2ccsc2CC1 (configuration not stated) | 6.89 | 7.38 | 7.20 |  |  | 
8 | COc1ccc2c(c1)CC[C@H](NCCCc1ccccc1)C[C@@H]2O (relative stereo) |  |  |  |  |  | 7.92
9 | CCN(CCCCc1ccccc1)C1CCc2ccsc2CC1 (configuration not stated) | 7.48 | 7.92 | 7.34 |  |  | 
10 | CN(Cc1ccccc1)C1CCc2ccsc2CC1 (configuration not stated) | 7.14 | 7.31 | 7.04 |  |  | 
11 | OCc1cc2c(s1)CCC(NCCCCc1ccccc1)CC2 (configuration not stated) | 6.12 | 7.08 | 7.14 |  |  | 
12 | CCN(Cc1ccccc1)C1CCc2ccsc2CC1 (configuration not stated) | 7.21 | 7.22 | 6.83 |  |  | 
13 | Oc1ccc(-c2cc3c(s2)CCC(NCCCc2ccccc2)CC3)cc1 (configuration not stated) | 7.22 | 6.74 | 7.20 |  |  | 

More lines, main results first:

Row | pKi [1] | pKi [2] | pKi [3] | Compound | Ratio Ki [4] | Ratio Ki [5] | pIC50 [6]
14 | 7.89 | 7.39 | 7.37 | Brc1cc2c(s1)CCC(NCCCc1ccccc1)CC2 (configuration not stated) | 3 | 3 | 
15 | 7.64 | 7.85 | 7.89 | Brc1cc2c(s1)CCC(NCCCCc1ccccc1)CC2 (configuration not stated) |  |  | 
16 | 7.96 | 7.21 | 8.24 | c1ccc(CCCCNC2CCc3ccsc3CC2)cc1 (configuration not stated) |  |  | 
17 | 8.05 | 7.77 | 7.92 | CN(CCCCc1ccccc1)C1CCc2ccsc2CC1 (configuration not stated) | 1.5 to 2 | 1.5 to 2 | 
18 | 8.68 |  |  | Clc1ccc2c(c1)CCC(NCCCc1ccccc1)CC2 (configuration not stated) |  |  | 
19 | 8.23 | 6.73 | 8.29 | c1ccc(CCCNC2CCc3ccsc3CC2)cc1 (configuration not stated) |  |  | 
20 | 8.22 | 8.00 | 7.89 | CN(CCCc1ccccc1)C1CCc2ccsc2CC1 (configuration not stated) | 2 | 2 | 

— ChEMBL document CHEMBL4610008, “Thiophene bioisosteres of GluN2B selective NMDA receptor antagonists: Synthesis and pharmacological evaluation of [7]annuleno[b]thiophen-6-amines” (Bioorg Med Chem, 2020)
